Assay [1] is described as follows: DPPH radical scavenging activity. As for the experimental part:
The 2,2-diphenyl-1-picrylhydrazyl (DPPH) radical scavenging activity was evaluated as described (Gupta D et al., BMC Complement Altem Med, 2011; 11:13. doi: 10.1186/1472-6882-11-13) with modifications. In this assay, 0.2 mL of sample at different concentrations (1-1000 μg/mL) was added to 1.8 mL of DPPH solution (0.11 mM) in 80% ethanol. The mixture was then incubated for 30 minutes and at room temperature in the dark. The absorbance at 517 nm was then measured with ascorbic acid and butylhydroxytoluene (BHT) as reference antioxidants. A 0.2 mL of solvent extract dilution added to 1.8 mL of DPPH solution (0.11 mM) in 80% ethanol serve as the control. Two independent experiments were performed in triplicate. The percentage inhibition was calculated relative to the control using the equation, inhibition of DPPH radical (%)=(1−(Abssample/Abscontrol))×100.

The test system of the next assay is STAT-3 phosphorylation. Nature of the assay: Interleukin-6 induced STAT-3 phosphorylation. The format is cell-based. The following applies: IL-6 induced STAT-3 phosphorylation; 100 uM.

Usually % Inhibition stands for the change of the read-out against control, counted positive when it falls. The low end stands for a weak effect, the high end for a strong effect.

Turning to `O=C(NC(Cc1cc(=O)[nH]c2ccccc12)C(=O)O)c1ccc(Cl)cc1` (stereo not drawn) [Rebamipde, rebamipide], in assay [1] (100 μg/mL), the “DPPH radical scavenging activity, %” value was determined as 0.93 ± 0.83%.

Take `O=c1c(-c2ccc(O)cc2)coc2cc(O)cc(O)c12` [Genestain]: in the assay on STAT-3 phosphorylation, the “% Inhibition” value is 96.25%.

With `O=C1O[C@H]([C@@H](O)CO)C(O)=C1O` [Ascorbic acid, ascorbic acid], the “DPPH radical scavenging activity, %” value in assay [1] (300 μM) worked out at 37.60 ± 0.47%.

(Values after US20190224261A1, “LICORICE EXTRACT COMPOSITIONS AND METHOD OF USE” (Adbiotech, Co. Ltd, priority 2018, published 2019).)
